Reference: the supplement of paper PMC11451515

Test system: P12-Ichikawa
Experiment: cell viability relative to DMSO control; higher = less cytotoxic
Settings: 48 h
Outline: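 Cells were incubated for 48 h at 37°C before CellTiter-Glo One luminescence was read. The cells were NOMO1 or SEM (500 cells/well) or P12-Ichikawa (1000 cells/well) leukemia cells, adapted for at least four passages in each medium and seeded in 1536-well plates (5 μl). Dosing used library compounds in DMSO applied by pin over 11 threefold points, 47 μM to 0.79 nM. Viability is the per-plate percentage of DMSO wells, with cell-free wells as background.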

[1] = HPLM + 10% dialyzed FBS, 0.000781 µM
[2] = HPLM + 10% dialyzed FBS, 0.00234 µM
[3] = HPLM + 10% dialyzed FBS, 0.00702 µM
[4] = HPLM + 10% dialyzed FBS, 0.0211 µM
[5] = HPLM + 10% dialyzed FBS, 0.0632 µM
[6] = HPLM + 10% dialyzed FBS, 0.19 µM
[7] = HPLM + 10% dialyzed FBS, 0.569 µM
[8] = HPLM + 10% dialyzed FBS, 1.71 µM
[9] = HPLM + 10% dialyzed FBS, 5.12 µM
[10] = HPLM + 10% dialyzed FBS, 15.4 µM
[11] = HPLM + 10% dialyzed FBS, 46.1 µM
[12] = RPMI 5 mM glucose + 10% FBS, 0.000781 µM
[13] = RPMI 5 mM glucose + 10% FBS, 0.00234 µM
[14] = RPMI 5 mM glucose + 10% FBS, 0.00702 µM
[15] = RPMI 5 mM glucose + 10% FBS, 0.0211 µM
[16] = RPMI 5 mM glucose + 10% FBS, 0.0632 µM
[17] = RPMI 5 mM glucose + 10% FBS, 0.19 µM
[18] = RPMI 5 mM glucose + 10% FBS, 0.569 µM
[19] = RPMI 5 mM glucose + 10% FBS, 1.71 µM
[20] = RPMI 5 mM glucose + 10% FBS, 5.12 µM
[21] = RPMI 5 mM glucose + 10% FBS, 15.4 µM
[22] = RPMI 5 mM glucose + 10% FBS, 46.1 µM
[23] = RPMI 5 mM glucose + 10% dialyzed FBS, 0.000781 µM
[24] = RPMI 5 mM glucose + 10% dialyzed FBS, 0.00234 µM
[25] = RPMI 5 mM glucose + 10% dialyzed FBS, 0.00702 µM
[26] = RPMI 5 mM glucose + 10% dialyzed FBS, 0.0211 µM
[27] = RPMI 5 mM glucose + 10% dialyzed FBS, 0.0632 µM
[28] = RPMI 5 mM glucose + 10% dialyzed FBS, 0.19 µM
[29] = RPMI 5 mM glucose + 10% dialyzed FBS, 0.569 µM
[30] = RPMI 5 mM glucose + 10% dialyzed FBS, 1.71 µM
[31] = RPMI 5 mM glucose + 10% dialyzed FBS, 5.12 µM
[32] = RPMI 5 mM glucose + 10% dialyzed FBS, 15.4 µM
[33] = RPMI 5 mM glucose + 10% dialyzed FBS, 46.1 µM

Row | SMILES | cell viability [1] | cell viability [2] | cell viability [3] | cell viability [4] | cell viability [5] | cell viability [6] | cell viability [7] | cell viability [8] | cell viability [9] | cell viability [10] | cell viability [11] | cell viability [12] | cell viability [13] | cell viability [14] | cell viability [15] | cell viability [16] | cell viability [17] | cell viability [18] | cell viability [19] | cell viability [20] | cell viability [21] | cell viability [22] | cell viability [23] | cell viability [24] | cell viability [25] | cell viability [26] | cell viability [27] | cell viability [28] | cell viability [29] | cell viability [30] | cell viability [31] | cell viability [32] | cell viability [33]
1 | Clc1cccc(-c2nnnn2Cc2cccnc2)c1Cl | 88.7% | 96% | 92.4% | 95.5% | 94.9% | 87.4% | 77.9% | 74.1% | 74.5% | 70.4% | 56.6% | 88.5% | 91.2% | 86.6% | 91.1% | 96.1% | 93.7% | 94.9% | 65.7% | 57% | 60.6% | 56.7% | 86.1% | 91.3% | 93.9% | 95.2% | 93.8% | 88.9% | 86.4% | 64.3% | 61.8% | 65.7% | 48.6%
2 | CC(C)(C)/[N+]([O-])=C/c1ccc([S+](=O)([O-])[O][Na])cc1[S+](=O)([O-])[O][Na] | 110% | 114% | 112% | 122% | 117% | 131% | 127% | 125% | 121% | 119% | 133% | 108% | 96.5% | 108% | 111% | 120% | 123% | 127% | 122% | 126% | 124% | 122% | 108% | 114% | 114% | 121% | 113% | 120% | 124% | 123% | 120% | 119% | 116%
3 | Cc1cc2c(C(C)C)c(O)c(O)c(C=O)c2c(O)c1-c1c(C)cc2c(C(C)C)c(O)c(O)c(C=O)c2c1O | 113% | 111% | 111% | 113% | 108% | 99.6% | 108% | 104% | 102% | 98.1% | 17.1% | 117% | 125% | 127% | 121% | 119% | 106% | 117% | 101% | 112% | 106% | 10.6% | 116% | 124% | 118% | 116% | 111% | 109% | 110% | 104% | 110% | 100% | 22%
4 | C[C@]\1(CCS\C(=N1)N)C2=CC(=C(F)C=C2F)C3=CN=CN=C3 | 98.2% | 101% | 112% | 103% | 110% | 115% | 115% | 122% | 106% | 15.2% | 2.53% | 99.3% | 103% | 119% | 117% | 113% | 114% | 121% | 113% | 117% | 30.2% | 8.85% | 92.1% | 109% | 104% | 109% | 110% | 108% | 101% | 98.6% | 99.8% | 62% | 13.4%
